Source: PMC1448180, “Small-molecule and mutational analysis of allosteric Eg5 inhibition by monastrol” (BMC Chemical Biology, 2006)
Residue numbers refer to the chain shown, from its start.

Assays:
[1] = molecular target: T1, hEg5-367H (R119L) (Homo sapiens, UniProt P52732, R119L); assay: ATP hydrolysis by Eg5 motor domain mutant R119L; type: biochemical; conditions: Figure 4B; legend: basal ATP hydrolysis; read-out: IC50(μM) of monastrol, (R119L)
T1 sequence (P52732 1-367 R119L): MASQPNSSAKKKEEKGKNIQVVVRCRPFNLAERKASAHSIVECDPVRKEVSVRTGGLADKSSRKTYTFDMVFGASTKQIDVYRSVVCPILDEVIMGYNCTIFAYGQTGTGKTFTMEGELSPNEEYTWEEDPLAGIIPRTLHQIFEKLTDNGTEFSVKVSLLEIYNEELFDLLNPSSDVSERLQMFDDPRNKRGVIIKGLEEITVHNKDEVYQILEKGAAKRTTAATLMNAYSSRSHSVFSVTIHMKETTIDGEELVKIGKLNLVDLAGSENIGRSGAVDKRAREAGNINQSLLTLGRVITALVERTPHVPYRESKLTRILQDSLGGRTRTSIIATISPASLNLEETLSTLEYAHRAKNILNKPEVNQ
Excerpt: (§1) Figure 4 Mutagenesis of the monastrol binding site in human Eg5. (A) Design of mutations in the human Eg5 motor domain. Amino acid side chains that are not conserved between Eg5 and conventional kinesin were targeted, either introducing chimeric or rationally designed mutations (asterix for targeted point mutants) to test the contribution of residues to the drug-sensitivity of Eg5. (B) Steady-state enzymatic parameters for engineered human Eg5 motor domain mutants. Steady-state ATP hydrolysis by Eg5 was measured using an NADH-enzyme coupled assay varying the concentration of ATP, microtubules, or monastrol to obtain the microtubule concentration for half-maximal stimulation (K0.5MT), the maximal rate of microtubule-stimulated ATP hydrolysis (kcat), and the concentration of monastrol that inhibits basal ATP hydrolysis by 50 % (IC50), as described.
(§2) We used a modified PCR mutagenesis protocol to introduce mutations into hEg5-367H, a plasmid encoding the C-terminally His6-tagged motor domain (amino acid residues 1–367) of human Eg5. […]
(§3) ATP hydrolysis by recombinantly expressed kinesin motor domains was measured using an NADH-enzyme coupled assay. ATP hydrolysis was measured in KC25 buffer supplemented with 5 μM taxol, 1 mM ATP-KOH (pH 7.0), the appropriate concentration of motor domain, and the appropriate concentrations of taxol-polymerized microtubules.

[2] = molecular target: T2, hEg5-367H (L214I) (Homo sapiens, UniProt P52732, L214I); assay: ATP hydrolysis by Eg5 motor domain mutant L214I; type: biochemical; conditions: Figure 4B; legend: basal ATP hydrolysis; read-out: IC50(μM) of monastrol, (L214I)
T2 sequence (P52732 1-367 L214I): T1 sequence (P52732 1-367 R119L) with L119R, L214I
Excerpt: as §1, §2, §3

`CCOC(=O)C1=C(C)NC(=S)NC1c1cccc(O)c1` (centres unmarked) [Monastrol] showed an IC50 [1] of 17 ± 2 µM and an IC50 [2] of 63 ± 7 µM.
